US20130281313A1, “PROGNOSTIC AND/OR PREDICTIVE BIOMARKERS AND BIOLOGICAL APPLICATIONS THEREOF” (INSTITUT GUSTAVE ROUSSY, priority 2010, published 2013)

Tests used:
[1] = system: A549 cells xenografted into immunodeficient Swiss nude mice; experiment: Tumor graft model: A549 cells in Swiss nude mice; assay type: in vivo, mouse; settings: A549 cells on Swiss nude mice; 5 mg/kg intraperitoneal CDDP + intraperitoneal Orlistat (240 mg/Kg), three times a week
Description: (§1) C57BL/6 (H-2b) and Swiss Nude mice were obtained from Janvier (Le Genest St. Isle, France) and Charles River, respectively. Animals were maintained in pathogen-free conditions, and all experiments were carried out (upon approval by the local ethical committee) according to the Federation of European Laboratory Animal Science Association (FELASA) guidelines. Mice were used between 6 and 12 weeks of age. During the experiments, animals were subjected to artificial light cycle (12 h lights on-12 h lights off) and allowed food and drink ad libitum.
(§2) 5×10^5 LLC and A549 cells were subcutaneously xenografted (in 100 μL sterile PBS) in 25-30 immunocompetent (C57BL/6) and immunodeficient (Swiss Nude) mice, respectively. When the surface of tumors reached 25-40 mm^2, n=4-6 mice were assigned to either of 4 different treatment groups: group 1=100 μL intraperitoneal PBS; group 2=5 mg/kg intraperitoneal CDDP in 100 μL PBS; group 3=240 mg/Kg intraperitoneal Orlistat® in 40 μL PBS; group 4=5 mg/kg intraperitoneal CDDP in 100 μL PBS+intraperitoneal Orlistat® in 40 μL PBS. Treatments were administered three times a week (day 1, 3 and 5; day 8=day 1). Tumor size was monitored on the day of treatment by means of a standard calliper and tumor volume was extrapolated as previously described {Streit, 1999}. […] Statistical significance was evaluated by two-way ANOVA.

[2] = system: murine Lewis lung carcinoma (LLC) cells in immunocompetent C57BL/6 mice; experiment: Tumor graft model: LLC cells in C57BL/6 mice; assay type: in vivo, mouse; settings: 5 mg/kg intraperitoneal CDDP + intraperitoneal Orlistat (240 mg/Kg), three times a week
Description: as §1, §2

A549 cells = experiment: Cytofluorometric assessment of cell death (DiOC6(3)/PI co-staining); assay type: cell-based, human
Description: Unless otherwise specified, chemicals were purchased from Sigma-Aldrich (St. Louis, USA), culture media and supplements for cell culture from Gibco-Invitrogen (Carlsbad, USA) and plasticware from Corning (Corning, USA). […] Orlistat (Xenical®) was obtained from Roche (Basel, Switzerland). […] Undissolved material was removed by two sequential rounds of centrifugation at 12,000 G (5 min, room temperature, RT), supernatants were collected and stored at −80° C. under protection from light until use. In low-throughput experiments, all cell lines were treated with 2.5 mM pyridoxine (PN), exception made for A549 cells that received 5 mM PN.
To avoid depleting the siRNA library of selected sequences, siRNAs for validation experiments were purchased as custom molecules from Sigma-Aldrich. For low-throughput experiments, (see below for the transfection protocols employed in the siRNA screen), siRNA were transfected in A549 cells with Oligofectamine™ reagent (Invitrogen), following the manufacturer's instructions. Transfection with a non-targeting siRNA (siUNR) was employed as a negative control condition. Forty-eight hours after transfection, siRNA-mediated target downregulation was assessed by immunoblotting (see below).
All cytofluorometric determinations were carried out a FACSCalibur or a FACScan cytofluorometer (BD Biosciences, San Jose, USA) equipped with a 70 μm nozzle.
First line statistical analysis of cytofluorometric results was performed by using the CellQuest™ software (BD Biosciences), by gating on the events characterized by normal forward scatter and side scatter parameters. Apoptosis- and cell cycle-related data were further analyzed with Microsoft Excel (Microsoft Co., Redmond, USA) and statistical significance was assessed by means of two-tailed Student's t test (p<0.05).

SMILES: CCCCCCCCCCC[C@@H](C[C@@H]1OC(=O)[C@H]1CCCCCC)OC(=O)[C@H](CC(C)C)NC=O [Orlistat®, Orlistat]
- antitumor effects of CDDP-based chemotherapy (tumor growth) [1]: augmented the antitumor effects of CDDP-based chemotherapy in vivo
- antitumor effects of CDDP-based chemotherapy (tumor growth) [2]: augmented the antitumor effects of CDDP-based chemotherapy in vivo
- cytotoxicity of CDDP upon pharmacological inhibition of LIPC (A549 cells; A549 cells in vitro, 25 or 75 μM CDDP): enhanced the cytotoxiticy of CDDP against A549 cells in vitro
- CDDP-induced killing, LIPC inhibition (orlistat) combined with IL6R inhibition (A549 cells; A549 cells, followed by CDDP, DiOC6(3)/PI co-staining): synergistically sensitized to CDDP-induced killing
